# Measured values reported in patent publication US4892947A, “3(2H)Pyridazinone, process for its preparation and anti-allergic agent containing it” (Nissan Chemical Industries Ltd., priority 1985, dated 1990).
# Where a name gives a salt, the structure may show the parent alone.
# Tested on: ddY strain male mice
# Assay: Acute toxicity test, intraperitoneal (Test method-(1))
# Type: in vivo
# Conditions: i.p. 200 mg/kg, 7 days
# Procedure: The lethal ratio was determined in ddY strain male mice (4 weeks old) at 7 days after the intraperitoneal injection of test compounds.
row,SMILES,Lethal ratio (Death number/Experimental number)
1,CCCOc1cc(CNc2cnn(C)c(=O)c2Cl)ccc1OC [Compound No. 12],0/2

# Same assay, conditions: i.p. 400 mg/kg, 7 days
row,SMILES,Lethal ratio (Death number/Experimental number)
1,CCCOc1cc(CNc2cnn(C)c(=O)c2Cl)ccc1OC [Compound No. 12],0/1

# Tested on: antigen-induced anaphylactic bronchoconstriction in passively sensitized guinea-pig
# Assay: Anaphylactic bronchoconstriction in passively sensitized guinea-pig, i.v. test
# Type: in vivo
# Conditions: i.v. 2 mg/kg, 1 min prior to EA challenge (10 mg/kg)
# Procedure: (§1) (iii) Effect on anaphylactic bronchoconstriction in passively sensitized guinea-pig
# Male guinea-pigs (350-450 g) were passively sensitized with intravenous (i.v.) injection of 0.125 ml rabbit anti-EA (egg albumin) serum (Cappel Laboratories) 1 to 2 days preceding the experiment. […] Sensitized guinea-pigs were anaesthetized with intraperitoneal injection of urethane (1.5 g/kg). The right jugular vein was cannulated for the administration of the all agents and trachea was cannulated to record total pulmonary resistance. Guinea-pigs were artificially ventilated by a small animal respirator (Shinano, Model SN-480-7) set at a stroke volume of 4.5 ml and a rate of 50 breaths per min. […] The increase in air overflow volume was expresssed as a percentage of the maximum bronchoconstriction obtained by clamping off the trachea. Following surgical preparation, the animals were pretreated with indomethacin (0.2 mg/kg, 10 min), pyrilamine (2 mg/kg, 6 min) and propanolol (0.1 mg/kg, 5 min) prior to the EA challenge (0.1 or 10 mg/kg). All test compounds were administered intraveneously or orally before the EA challenge. Inhibition (%) of bronchoconstriction was determined as follows: Inhibition (%)=(1.0%-maximum bronchoconstriction in test/% maximum bronchoconstriction in control)×100. […] The number of test animals was 4 in the i.v. test and 6 in the p.o. test.
# (a) The i.v. test: A test compound (2 mg/kg) was suspended or dissolved in 3% Tween 80 and intraveneously administered 1 min prior to the EA challlenge (10 mg/kg).
row,SMILES,Inhibition (%) of bronchoconstriction
1,CCCOc1cc(CNc2cnn(C)c(=O)c2Cl)ccc1OC [Compound No. 12],31%
2,CN(C)c1ccc(CNc2cn[nH]c(=O)c2Cl)cc1 [compound 25],27%

# Tested on: antigen-induced anaphylactic bronchoconstriction in passively sensitized guinea-pig
# Assay: Anaphylactic bronchoconstriction in passively sensitized guinea-pig, p.o. test
# Type: in vivo
# Conditions: p.o. 50 mg/kg, 2 hours prior to EA challenge (0.2 mg/kg)
# Procedure: as §1
# Male guinea-pigs (350-450 g) were passively sensitized with intravenous (i.v.) injection of 0.125 ml rabbit anti-EA (egg albumin) serum (Cappel Laboratories) 1 to 2 days preceding the experiment. Antigen-induced anaphylactic bronchoconstrictions were measured by modified method of Konzett and Rossler (Arch. Exp. Path. Pharmak., 195, 71, 1940). Sensitized guinea-pigs were anaesthetized with intraperitoneal injection of urethane (1.5 g/kg). The right jugular vein was cannulated for the administration of the all agents and trachea was cannulated to record total pulmonary resistance. Guinea-pigs were artificially ventilated by a small animal respirator (Shinano, Model SN-480-7) set at a stroke volume of 4.5 ml and a rate of 50 breaths per min. The change in pulmonary resistance was measured with a pressure transducer (Nihon Kohden, Model TP-602T) connected to a T-tube on the tracheal cannula. The increase in air overflow volume was expresssed as a percentage of the maximum bronchoconstriction obtained by clamping off the trachea. Following surgical preparation, the animals were pretreated with indomethacin (0.2 mg/kg, 10 min), pyrilamine (2 mg/kg, 6 min) and propanolol (0.1 mg/kg, 5 min) prior to the EA challenge (0.1 or 10 mg/kg). All test compounds were administered intraveneously or orally before the EA challenge. Inhibition (%) of bronchoconstriction was determined as follows: Inhibition (%)=(1.0%-maximum bronchoconstriction in test/% maximum bronchoconstriction in control)×100. The maximum bronchoconstriction was btained within 30 min after the EA challenge. The number of test animals was 4 in the i.v. test and 6 in the p.o. test.
# (b) The p.o. test: A test compound was suspended in 5% gum arabic and orally administered 2 hours prior to the EA challenge (0.2 mg/kg). The reaction of the control was 62±6%.
row,SMILES,Inhibition (%) of bronchoconstriction
1,CCCOc1cc(CNc2cn[nH]c(=O)c2Cl)ccc1OC [Compound No. 32],71%
2,CCCOc1cc(CNc2cn[nH]c(=O)c2Br)ccc1OC [compound 30],65%

# Tested on: LTD4
# Assay: LTD4 antagonism in isolated guinea-pig trachea with indomethacin (method (ii))
# Type: cell-based
# Conditions: Cavia porcellus, 0.5 h, 10^-6 g/ml test compound, 30 min prior to LTD4
# Procedure: (ii) LTD4 antagonism in guinea-pig trachea
# Antagonism for LTD4 was determined in isolated guinea-pig trachea prepared as spiral strip. Tracheal preparations were suspended under 1 g tension in 10 ml organ baths containing […] of indomethacin and they were incubated for 1 hr prior to use. Contractile responses to LTD4 (2×10^-8 g/ml) were obtained after the maximal respone to hitamine (10^-4 M). Test compounds dissolved in 100% dimethyl sulfoxide were added to the organ baths (final concentration of 10^-6 g/ml) 30 min prior to LTD4 addition, and then contractile responses to LTD4 were compared with those of control which was obtained from a paired trachea in the absence of test compounds. LTD4 -induced contractions were expressed as a percentage of the maximal response to histamine. The antagonism was determined as follows:
# (§2) Antagonism (%)=(1.0-% contraction in test/% contraction in control)×100
row,SMILES,inhibition at 1 µg/mL
1,CCCCCCOc1cc(CNc2cn[nH]c(=O)c2Br)ccc1OC [Compound No. 41],87%
2,CCCCCCOc1cc(CNc2cn[nH]c(=O)c2Cl)ccc1OC [compound 40],99%
3,CCCCCCCOc1cc(CNc2cn[nH]c(=O)c2Cl)ccc1OC [compound 42],96%
4,CCCCCCCOc1cc(CNc2cn[nH]c(=O)c2Br)ccc1OC [compound 43],78%
5,COc1ccc(CNc2cnn(-c3ccccc3)c(=O)c2Cl)cc1 [compound 44],20%
6,COc1ccc(CNc2cnn(Cc3ccccc3)c(=O)c2Cl)cc1 [compound 45],23%
7,CCOc1cc(CNc2cnn(C3CCCC3)c(=O)c2Cl)ccc1OC [compound 46],38%
8,C=CCn1ncc(NCc2ccc(OC)c(OCCC)c2)c(Cl)c1=O [compound 47],31%
9,C=CCn1ncc(NCc2ccc(OC)c(OCC)c2)c(Cl)c1=O [compound 48],28%
10,CCOc1cc(CNc2cnn(-c3ccccc3)c(=O)c2Cl)ccc1OC [compound 49],42%
11,CCOc1cccc(CNc2cnn(Cc3ccccc3)c(=O)c2Cl)c1 [compound 50],30%
12,Cc1ccc(CNc2cn[nH]c(=O)c2Cl)c(C)c1 [compound 52],22%
13,Cc1ccc(CNc2cn[nH]c(=O)c2Br)c(C)c1 [compound 53],37%
14,COc1ccc(CNc2cn[nH]c(=O)c2Cl)cc1OCc1ccccc1 [compound 54],44%

# Tested on: LTD4
# Assay: LTD4 antagonism in isolated guinea-pig trachea (method (i))
# Type: cell-based
# Conditions: 10^-5 g/ml test compound, 5 min prior to LTD4 (2×10^-8 g/ml), hydrochloride
# Procedure: (i) LTC4 and LTD4 antagonisms in guinea-pig trachea
# Antagonisms for LTC4 and LTD4 were determined in isolated guinea-pig trachea prepared as spiral strip. Tracheal preparations were suspended under 1 g tension in 10 ml organ baths and they were incubated for 1 hr prior to use. Contractile responses to LTC4 (2×10^-8 g/ml) and LTD4 (2×10^-8 g/ml) were obtained after the maximal response to histamine (10^-4 M). Test compounds dissolved in 100% dimethyl sulfoxide were added to the organ baths (final concentration of 10^-5 g/ml or 10^-6 g/ml) 5 min prior to LTC4 and LTD4 addition, and then contractile responses to LTC4 and LTD4 were compared with those of control which was obtained from a paired trachea in the absence of test compounds. LTC4 - and LTD4 -induced contractions were expressed as a percentage of the maximal response to histamine. The antagonism was determined as follows:
# as §2
row,SMILES,LTD4 antagonism (%)
1,"COc1ccc(CNc2cnn(CCN(C)C)c(=O)c2Cl)cc1OC [Compound No. 9, 4-Chloro-5-(3,4-dimethoxybenzylamino)-2-(2-N,N-dimethylaminoethyl)-3(2H)pyridazinone hydrochloride]",26%

# Same assay, conditions: Cavia porcellus, 5 min, 10^-5 g/ml test compound, 5 min prior to LTD4 (2×10^-8 g/ml)
row,SMILES,inhibition at 10 µg/mL
1,CC(C)c1ccc(CNc2cnn(C)c(=O)c2Cl)cc1 [Compound No. 1],49%
2,C=CCn1ncc(NCc2ccc(Cl)cc2)c(Cl)c1=O [Compound No. 2],93%
3,CCOc1cccc(CNc2cnn(C)c(=O)c2Cl)c1 [Compound No. 4],49%
4,"COc1ccc(CNc2cnn(CCN(C)C)c(=O)c2Cl)cc1OC [Compound No. 8, 4-Chloro-5-(3,4-dimethoxybenzylamino)-2-(2-N,N-dimethylaminoethyl)-3(2H)pyridazinone]",36%
5,CCCOc1cc(CNc2cnn(C)c(=O)c2Cl)ccc1OC [Compound No. 12],73%
6,"CCCCCOc1cc(CNc2cnn(CCC(=O)OC(C)(C)C)c(=O)c2Cl)ccc1OC [Compound No. 16, 4-Chloro-5-(3-n-pentyloxy-4-methoxybenzylamino)-2-{2-(t-butyloxycarbonyl)ethyl}-3(2H)pyridazinone]",24%
7,CCCOc1cc(CNc2cn[nH]c(=O)c2Cl)ccc1OC [Compound No. 32],100%
8,CCCOc1cccc(CNc2cnn(C)c(=O)c2Cl)c1 [compound 5],71%
9,C=CCn1ncc(NCc2ccc(OC)c(OC)c2)c(Cl)c1=O [compound 6],53%
10,Cn1ncc(NCc2cccc(OCc3ccccc3)c2)c(Cl)c1=O [compound 7],53%
11,COc1ccc(CNc2cnn(CC(F)(F)F)c(=O)c2Cl)cc1OC [compound 11],47%
12,CCCCCOc1cc(CNc2cnn(CCO)c(=O)c2Cl)ccc1OC [compound 14],35%
13,CCCCCOc1cc(CNc2cnn(CCCO)c(=O)c2Cl)ccc1OC [compound 15],51%
14,CCCCCOc1cc(CNc2cnn(CC(=O)O)c(=O)c2Cl)ccc1OC [compound 17],20%
15,CCCCCOc1cc(CNc2cnn(CCC(=O)O)c(=O)c2Cl)ccc1OC [compound 18],18%
16,COc1cc(CNc2cnn(C)c(=O)c2Cl)cc(OC)c1OC [compound 19],22%
17,COc1cc(CNc2cnn(CCCO)c(=O)c2Cl)cc(OC)c1OC [compound 20],19%
18,COc1ccc(CNc2cnn(CCN(C)C)c(=O)c2Cl)cc1O [compound 21],20%
19,C=CCn1ncc(NCc2ccc(SC)cc2)c(Cl)c1=O [compound 22],72%
20,CCCCC/C=C\c1ccc(CNc2cnn(CC(=O)O)c(=O)c2Cl)cc1 [compound 23],31%
21,CCCCOC(=O)c1ccc(CNc2cnn(C)c(=O)c2Cl)cc1 [compound 24],43%
22,CN(C)c1ccc(CNc2cn[nH]c(=O)c2Cl)cc1 [compound 25],63%
23,CCN(CC)c1ccc(CNc2cnn(C)c(=O)c2Cl)cc1 [compound 26],46%
24,Cn1ncc(NCc2ccc(C(=O)O)cc2)c(Cl)c1=O [compound 27],20%
25,COc1ccc(CNc2cn[nH]c(=O)c2Cl)cc1 [compound 28],67%
26,CCCOc1cccc(CNc2cn[nH]c(=O)c2Br)c1 [compound 29],61%
27,CCCOc1cc(CNc2cn[nH]c(=O)c2Br)ccc1OC [compound 30],100%
28,CCCOc1cccc(CNc2cn[nH]c(=O)c2Cl)c1 [compound 31],51%

# Same assay, conditions: Cavia porcellus, 5 min, 10^-6 g/ml test compound, Test method (i) (asterisk in Table 4), 5 min prior to LTD4
row,SMILES,inhibition at 1 µg/mL
1,CCCOc1cc(CNc2cn[nH]c(=O)c2Cl)ccc1OC [Compound No. 32],64%
2,CCCCCOc1cc(CNc2cn[nH]c(=O)c2Cl)ccc1OC [Compound No. 37],87%
3,"CCCCCOc1cc(CNc2cn[nH]c(=O)c2Br)ccc1OC [Compound No. 39, 4-Bromo-5-(3-n-pentyloxy-4-methoxybenzylamino)-3(2H)-pyridazinone]",87%
4,CCCOc1cc(CNc2cn[nH]c(=O)c2Br)ccc1OC [compound 30],78%
5,CCCCOc1cc(CNc2cn[nH]c(=O)c2Cl)ccc1OC [compound 34],49%
6,CCOc1cc(CNc2cn[nH]c(=O)c2Cl)ccc1OC [compound 35],42%
